One assay relates to primary retinal neurons. The assay is described as follows: Neurite growth of primary retinal neurons on complex inhibitory substrates (CSPG, myelin). Conditions: plated on myelin or CSPG; 48 hours; FIG. 8. Format: cell-based, rats.
The subject of assay [1] is corticospinal tract (CST) fibers. Also noted: species or system Balb-c female mice. Conditions: mouse, in vivo.
The subject of another assay is hindlimb motor function. The assay is described as follows: Behavioral recovery after SCI, modified BBB locomotor rating scale. It counts as in vivo, mice. Here is the method:
Since a toe clearance phase cannot be evaluated in recuperating mice, we modified the rating to a 17 point scale. Behavioral recovery was assessed for one month after SCI in an open field environment by the BBB method (Basso et al., 1995). […] Thus, scale points 16, 17 and 18 were removed from the scale. Mice raise their tail early in their recovery, and score 19 for tail up position was removed, leaving a 17 point total score. The mouse modified BBB score was as follows: [0] no observable hindlimb (HL) movement; […] […] In the late phase of recovery, the BBB score was determined from sequences of 4 steps or more from digitized videos projected on a computer screen at ¼ speed.

Turning to `C[C@@H](N)[C@H]1CC[C@H](C(=O)Nc2ccncc2)CC1` [Y27632, (+)-Trans-4-(1-aminoethyl)-1-(4-pyridycarbamoyl)-cyclohexane], in the assay on primary retinal neurons, the “length of neurites compared to untreated cells” value is given as “significantly increased the length of neurites”. For the same compound, in assay [1], the “distance of the longest axon from the lesion site” value was “up to 3 mm”; the “sprouting of transected CST axons” value is “regenerative sprouting into the dorsal white matter and toward the lesion site”. Moreover, the “locomotor recovery over 1 month” value in the assay with hindlimb motor function (1 month period of observation) was “exhibited hindlimb-forelimb coordination”. Also, in the assay on hindlimb motor function (24 hours, control mice paraplegic, FIG. 10), the “locomotor recovery at 24 hours after surgery” value is listed as “already walking with weight support”.

These data come from patent US7169783B2, “(+)-Trans-4-(1-aminoethyl)-1-(4-pyridycarbamoyl)-cyclohexane and method for promoting neural growth in the central nervous system and in a patient at a site of neuronal lesion” (Universite de Montreal, priority 1998, dated 2007).
